Laboratory results published in ChEMBL document CHEMBL1158376, “Azadirachtin, a scientific gold mine” (Bioorg Med Chem, 2009).

What was measured:
[1] = Toxicity in rat; type: organism-based; conditions: in vivo
Drosophila melanogaster [2] = test: Antiproliferative activity against Drosophila melanogaster Kc167 cells after 48 hrs; type: functional
Drosophila melanogaster [3] = test: Induction of nuclear damage in Drosophila melanogaster Kc167 cells after 6 hrs; type: functional

C/C=C(\C)C(=O)O[C@H]1C[C@@H](OC(C)=O)[C@@]2(C(=O)OC)CO[C@H]3[C@@H](O)[C@@](C)([C@]45O[C@@]4(C)[C@@H]4C[C@H]5O[C@@H]5OC=C[C@@]54O)[C@H]4[C@]1(CO[C@]4(O)C(=O)OC)[C@@H]32 [AZADIRACHTIN A]
LD50 [1]: > 3540 mg/kg | inhibition (Drosophila melanogaster [2]): Dose-dependent effect | inhibition (Drosophila melanogaster [3]): Dose-dependent effect
